Source: PMC4105438, “Novel Benzoxazine-Based Aglycones Block Glucose Uptake In Vivo by Inhibiting Glycosidases” (PLoS ONE, 2014)
Values joined by “and” are separate entries in the source; they are usually repeats but may differ in a detail not shown here. Identical values can stand only once.

Columns and labels:
[1] = tested on: overnight fasted Wistar rats; assay: Oral maltose tolerance test; format: in vivo, rat; settings: acarbose 3 mg/kg oral, maltose 3 g/kg, compared to maltose control
Source text: (§1) Adult Wistar rats weighing 150–180 g were collected from the University Central Animal Facility and housed under a controlled environment. All animal experiments were approved by the Institutional Animal Ethical Committee (Order No : MGZ/2620/2011-12 Dated 31-01-2012; UOM/IAEC/18/2011), Department of Studies in Zoology, University of Mysore, Mysore and were in accordance with the guidelines of the Committee for the Purpose of Control and Supervision of Experiments on Animals (CPCSEA).
(§2) The experimental animals were randomly divided into 11 groups each consisting of 5 rats. […] Blood was collected from the tail vein to the tubes containing anticoagulant (2.5% trisodium citrate and 1.37% citric acid in the ratio 1∶5; anti-coagulant: blood) at time point 0 (just before sucrose/maltose administration), and subsequently at 30, 60, 90, 120 and 180 min after substrate (sucrose/maltose) administration. Plasma was separated by centrifuging the samples at 2000 rpm for 10 min and stored at −20°C until analysis. Plasma glucose concentration was determined by using the Glucose oxidase (GOD POD) kit according to the manufacturer’s protocol.

[2] = tested on: overnight fasted Wistar rats; assay: Oral sucrose tolerance test; format: in vivo, rat; settings: acarbose 3 mg/kg oral, sucrose 3 g/kg, compared to sucrose control
Source text: as §1, §2

rat intestinal maltase = assay: Intestinal α-glucosidase inhibitory assay, maltose as substrate; format: biochemical; settings: rat intestinal acetone powder, maltose 37 mM, 30 min
Method: Intestinal α-glucosidase activity was determined by measuring the amount of glucose hydrolyzed from maltose or sucrose. Briefly, rat intestinal acetone powder was homogenized in 0.9% saline and the suspension was centrifuged at 10,000 g for 30 min at 4°C and the supernatant obtained was used as enzyme source. […] After the respective incubation period, reaction was terminated by keeping the samples in boiling water bath for 10 min. The concentration of glucose released from the reaction mixtures was determined by using Glucose oxidase (GOD POD) kit according to the manufacturer’s protocol. Results were expressed as percentage inhibition of intestinal maltase/sucrase activity.

α-Glucosidase = biological target: T1, α-Glucosidase (Saccharomyces cerevisiae, UniProt P53341); assay: biochemical; settings: 0–100 µM, pre-incubation 10 min 37°C, pH 6.9; NS = not significant
T1 construct: purchased SRL, Mumbai (India)
T1 sequence (P53341 whole entry): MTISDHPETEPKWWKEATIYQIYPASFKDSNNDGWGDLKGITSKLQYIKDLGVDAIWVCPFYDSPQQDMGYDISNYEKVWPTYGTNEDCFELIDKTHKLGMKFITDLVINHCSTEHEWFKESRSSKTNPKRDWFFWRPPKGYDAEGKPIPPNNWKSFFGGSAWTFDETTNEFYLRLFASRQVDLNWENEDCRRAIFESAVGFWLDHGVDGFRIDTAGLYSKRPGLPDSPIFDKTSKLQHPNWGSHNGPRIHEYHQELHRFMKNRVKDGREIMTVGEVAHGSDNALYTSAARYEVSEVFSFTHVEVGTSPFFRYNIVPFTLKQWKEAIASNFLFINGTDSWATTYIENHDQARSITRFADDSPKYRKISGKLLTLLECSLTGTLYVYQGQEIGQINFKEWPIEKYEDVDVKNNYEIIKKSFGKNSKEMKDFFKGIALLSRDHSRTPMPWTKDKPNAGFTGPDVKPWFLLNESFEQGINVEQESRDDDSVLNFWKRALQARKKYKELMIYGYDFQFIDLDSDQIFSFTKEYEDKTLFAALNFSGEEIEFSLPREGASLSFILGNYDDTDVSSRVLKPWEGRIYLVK
Method: (§3) Porcine pancreatic α-Amylase and Yeast α-Glucosidase were purchased from SRL, Mumbai (India). Glucose oxidase (GOD POD) kit was purchased from Piramal HealthCare Ltd, Mumbai (India). All other chemicals used were of analytical grade and purchased from Sigma Aldrich, St. Louis (USA) and SRL, Mumbai (India). All IR spectra were obtained in KBr disc on a Shimadzu FT-IR 157 Spectrometer. ^1H and ^13C NMR spectra were recorded on a Bruker WH-200 (400 MZ) spectrometer in CDCl3 or DMSO-d6 as solvent, using TMS as an internal standard and chemical shifts are expressed as ppm. Mass spectra were determined on a Shimadzu LC-MS. The elemental analyses were carried out using an Elemental Vario Cube CHNS rapid Analyzer. The progress of the reaction was monitored by TLC pre-coated silica gel G plates.
The α-glucosidase inhibitory activities of synthesized compounds were evaluated using the method developed by Tsujii et al.. Briefly, α-glucosidase was dissolved in phosphate buffer (50 mM, pH 6.9) and pre-treated with various concentrations of 1,3-benzoxazine derivatives (0–100 µM) independently for 10 min at 37°C. The reaction was initiated by the addition of 50 µL of 5 mM p-nitrophenyl- α -D-glucopyranoside solution in phosphate buffer (50 mM, pH 6.9). The enzyme reaction was carried out at 37°C for 30 min. The reaction was terminated by the addition of Na2CO3 (1 M). The enzymatic activity of α-glucosidase was quantified by measuring the absorption at 405 nm using a Varioskan multimode plate reader (Thermo Scientifics, USA). The inhibitory effect of compounds was defined as inhibitory activity (%) = (Abs Control – Abs Compound treated)/Abs Control ×100. Concentration-response assays were used to determine the potency (IC50) of 1,3-benzoxazine derivatives based on the logistic analysis of the concentration-response curve using Microsoft Excel.

[3] = biological target: T2, Porcine pancreatic α-amylase (Sus scrofa, UniProt P00690); assay: α-amylase inhibition assay (starch, DNS reagent); format: biochemical; settings: 0–100 µM, pre-incubation 10 min 37°C, pH 6.9; NS = not significant
T2 construct: purchased SRL, Mumbai (India)
T2 sequence (P00690 16-511): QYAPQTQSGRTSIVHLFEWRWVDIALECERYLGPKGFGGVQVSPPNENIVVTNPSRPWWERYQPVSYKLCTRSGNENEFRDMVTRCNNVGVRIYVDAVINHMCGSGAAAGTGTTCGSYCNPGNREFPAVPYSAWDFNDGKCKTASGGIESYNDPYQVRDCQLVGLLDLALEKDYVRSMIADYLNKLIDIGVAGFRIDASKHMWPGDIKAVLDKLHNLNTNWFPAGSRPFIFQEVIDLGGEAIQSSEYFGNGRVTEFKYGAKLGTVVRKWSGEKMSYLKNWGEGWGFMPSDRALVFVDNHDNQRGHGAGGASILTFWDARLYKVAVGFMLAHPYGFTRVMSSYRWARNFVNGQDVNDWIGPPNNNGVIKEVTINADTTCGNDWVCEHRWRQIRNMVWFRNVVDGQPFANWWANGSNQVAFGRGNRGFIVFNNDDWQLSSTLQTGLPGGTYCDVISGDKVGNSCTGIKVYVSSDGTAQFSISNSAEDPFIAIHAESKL
Method: as §3, with “All IR spectra were obtained in KBr disc on a Shimadzu FT-IR 157 Spectrometer. ^1H and ^13C NMR spectra were recorded on a Bruker WH-200 (400 MZ) spectrometer in CDCl3 or DMSO-d6 as solvent, using TMS as an internal standard and chemical shifts are expressed as ppm.” left out
The α-amylase inhibition assay was performed according to a previous report. Porcine pancreatic α-amylase (3 units/mL) was dissolved in 0.1 M phosphate buffered saline, pH 6.9. […] The reaction was initiated by adding substrate solution (0.1% starch) to the incubation medium. After 10 min incubation, the reaction was stopped by adding 250 µL dinitrosalicylic (DNS) reagent (1% 3, 5-dinitrosalicylic acid, 0.2% phenol, 0.05% Na2SO3 and 1% NaOH in aqueous solution) to the reaction mixture. The reaction was terminated by keeping the reaction mixture in boiling water bath for 10 min. Thereafter, 250 µL of 40% potassium sodium tartarate solution was added to the mixtures to stabilize the colour. After cooling to room temperature in a cold water bath, the absorbance was recorded at 540 nm using a Varioskan multimode plate reader (Thermo Scientifics, USA). Acrabose was used as positive control. The percentage of inhibition was calculated using Abs Contol – Abs Sample ×100/Abs Control. Where Abs Control was the absorbance without sample, Abs sample was the absorbance of enzyme with compound.

IC50 (rat intestinal maltase) [µM] | IC50 (α-Glucosidase) | melting point [°C] | IC50 [3] [µM] | Structure (SMILES) | plasma glucose concentration [1] | plasma glucose concentration [2]
3.5 | – | – | – | C[C@H]1O[C@H](O[C@H]2[C@H](O)[C@@H](O)[C@@H](O[C@H]3[C@H](O)[C@@H](O)C(O)O[C@@H]3CO)O[C@@H]2CO)[C@H](O)[C@@H](O)[C@@H]1N[C@H]1C=C(CO)[C@@H](O)[C@H](O)[C@H]1O (some centres unmarked) [Acarbose, reference compound] | significantly reduced the plasma glucose concentration at 30, 60, 90 min time intervals | only significant at 60 and 90 min time points
– | 17.1 ± 0.1 µM | 160 to 162 | 20.4 ± 0.2 | Oc1ccc(C2Nc3ccccc3CO2)cc1 (centres unmarked) [compound 1, 4-(2,4-dihydro-1H-benzo[d][1,3]oxazin-2-yl)phenol] | – | –
– | 32 ± 0.2 µM | – | 59.2 ± 1 | c1ccc2c(c1)COC(c1c[nH]c3ccccc13)N2 (centres unmarked) [compound 2, 2-(1H-indol-3-yl)-2,4-dihydro-1H-benzo[d][1,3]oxazine] | – | –
– | 21.6 ± 0.1 µM | – | 10.6 ± 0.3 | Cc1[nH]c2ccccc2c1C1Nc2ccccc2CO1 (centres unmarked) [compound 3, 2-(2-methyl-1H-indol-3-yl)-2,4-dihydro-1H-benzo[d][1,3]oxazine] | – | –
– | > 100 µM | 142 to 144 | 23.3 ± 0.5 | O=c1c(C2Nc3ccccc3CO2)coc2ccccc12 (centres unmarked) [compound 5, 3-(2,4-dihydro-1H-benzo[d][1,3]oxazin-2-yl)-4H-chromen-4-one] | – | –
– | 16 µM and 16.7 µM | 80 to 82 | 18.5 ± 0.1 | CCCCc1nc(Cl)c(C2Nc3ccccc3CO2)[nH]1 (centres unmarked) [compound 6, 2-(2-butyl-4-chloro-1H-imidazol-5-yl)-2,4-dihydro-1H-benzo[d][1,3]oxazine] | – | –
– | 27.7 ± 1 µM | – | 26.4 ± 0.5 | Clc1ccc2c(c1)NC(c1c[nH]c3ccccc13)OC2 (centres unmarked) [compound 8, 7-chloro-2-(1H-indol-3-yl)-2,4-dihydro-1H-benzo[d][1,3]oxazine] | – | –
– | 27.8 ± 0.2 µM | – | 22.2 ± 0.1 | Clc1ccc2c(c1)COC(c1c(-c3ccccc3)[nH]c3ccccc13)N2 (centres unmarked) [compound 9, 6-chloro-2-(2-phenyl-1H-indol-3-yl)-2,4-dihydro-1H-benzo[d][1,3]oxazine] | – | –
– | 31.9 ± 0.8 µM | 141 to 143 | > 100 | O=c1c(C2Nc3ccc(Cl)cc3CO2)coc2ccccc12 (centres unmarked) [compound 10, 3-(6-chloro-2,4-dihydro-1H-benzo[d][1,3]oxazin-2-yl)-4H-chromen-4-one] | – | –
– | 23.8 ± 0.1 µM | – | > 100 | Cc1ccc2c(c1)COC(c1c(C)[nH]c3ccccc13)N2 (centres unmarked) [compound 11, 6-methyl-2-(2-methyl-1H-indol-3-yl)-2,4-dihydro-1H-benzo[d][1,3]oxazine] | – | –
– | 20.5 ± 0.5 µM | – | 17.6 ± 0.3 | Cc1ccc2c(c1)COC(c1c(-c3ccccc3)[nH]c3ccccc13)N2 (centres unmarked) [compound 12, 6-methyl-2-(2-phenyl-1H-indol-3-yl)-2,4-dihydro-1H-benzo[d][1,3]oxazine] | – | –
– | > 100 µM | 202 to 204 | 51 ± 0.3 | Cc1ccc2c(c1)COC(c1coc3ccccc3c1=O)N2 (centres unmarked) [compound 13, 3-(6-methyl-2,4-dihydro-1H-benzo[d][1,3]oxazin-2-yl)-4H-chromen-4-one] | – | –

Structure (SMILES) | IC50 (rat intestinal maltase) [µM] | IC50 (α-Glucosidase) | melting point [°C] | IC50 [3] [µM] | plasma glucose concentration [1] | plasma glucose concentration [2]
N#Cc1ccccc1-c1ccc(Cn2cc(C3Nc4ccccc4CO3)c3ccccc32)cc1 (centres unmarked) [compound 4] | – | > 100 µM | – | > 100 | – | –
